Test results as given in a compilation of properties of binary mixtures (doi:10.1016/j.molliq.2011.09.019).

Experiment: xn = mol fraction of the nth substance listed
Settings: 101 kPa

CS(C)=O + CC(=O)[O-].CC[NH2+]CC
x1 = 1
Settings | speed of sound [m/s] | viscosity [mPa·s]
298.15 K | 1496 | 1.99
303.15 K | 1472 | 1.79
308.15 K | 1460 | 1.65

CC(=O)[O-].CC[NH2+]CC + CS(C)=O
Settings | speed of sound, 298.15 K [m/s] | speed of sound, 303.15 K [m/s] | speed of sound, 308.15 K [m/s] | viscosity, 298.15 K [mPa·s] | viscosity, 303.15 K [mPa·s] | viscosity, 308.15 K [mPa·s]
x1 = 0.0144 | 1500 | 1478 | 1469 | 2.24 | 2.04 | 1.9
x2 = 0 | 1608 | 1604 | 1599 | 16.36 | 13.64 | 11.83
x2 = 0.0253 | 1606 | – | 1594 | 16.01 | – | 11.6
x2 = 0.0627 | 1604 | 1599 | 1594 | 15.5 | 12.96 | 11.27
x2 = 0.1132 | 1601 | 1597 | 1592 | 14.83 | 12.44 | 10.86
x2 = 0.1535 | 1599 | 1595 | – | 14.29 | 12.02 | –
x2 = 0.2023 | – | 1594 | 1589 | – | 11.54 | 10.14
x2 = 0.2458 | 1597 | 1593 | 1588 | 13.11 | 11.1 | 9.76
x2 = 0.2814 | – | 1592 | – | – | 10.73 | –
x2 = 0.3244 | 1596 | 1591 | 1584 | 12.13 | 10.28 | 9.1
x2 = 0.3701 | 1595 | 1590 | 1582 | 11.56 | 9.82 | 8.7
x2 = 0.4864 | 1593 | 1582 | 1574 | 10.09 | 8.64 | 7.69
x2 = 0.5897 | – | 1572 | 1562 | – | 7.51 | 6.74
x2 = 0.66 | – | 1564 | 1554 | – | 6.72 | 6.08
x2 = 0.7253 | 1572 | – | 1544 | 6.74 | – | 5.4
x2 = 0.7851 | – | 1540 | 1530 | – | 5.17 | 4.77
x2 = 0.8406 | 1546 | – | 1516 | 4.91 | – | 4.11
x2 = 0.8923 | 1532 | 1512 | 1502 | 3.98 | 3.67 | 3.45
x2 = 0.9248 | 1522 | – | 1490 | 3.39 | – | 2.95
x2 = 0.956 | 1513 | 1491 | 1480 | 2.81 | 2.61 | 2.48
x2 = 0.971 | – | 1485 | 1474 | – | 2.32 | 2.18
